According to US8236845B2, “Heterocyclyl-substituted-tetrahydro-naphthalen-amine derivatives, their preparation and use as medicaments” (Laboratorios del Dr. Esteve, S.A., priority 2007, dated 2012):
Counter-ions that a name gives are not always drawn.

The compounds below were run against T1, Cloned Human Serotonin Receptor, Subtype 7 (h5HT7) (Homo sapiens, UniProt P34969) (assay: Radioligand binding assay, [125I]LSD, cloned human 5-HT7 receptor expressed in CHO cells). Conditions: radioligand [125I]LSD 0.82 nM.
T1 construct: purchased PerkinElmer 6120512; host or cells: CHO cells (membranes coated on Basic FlashPlate, Cat. SMP200)
T1 sequence (P34969 whole entry): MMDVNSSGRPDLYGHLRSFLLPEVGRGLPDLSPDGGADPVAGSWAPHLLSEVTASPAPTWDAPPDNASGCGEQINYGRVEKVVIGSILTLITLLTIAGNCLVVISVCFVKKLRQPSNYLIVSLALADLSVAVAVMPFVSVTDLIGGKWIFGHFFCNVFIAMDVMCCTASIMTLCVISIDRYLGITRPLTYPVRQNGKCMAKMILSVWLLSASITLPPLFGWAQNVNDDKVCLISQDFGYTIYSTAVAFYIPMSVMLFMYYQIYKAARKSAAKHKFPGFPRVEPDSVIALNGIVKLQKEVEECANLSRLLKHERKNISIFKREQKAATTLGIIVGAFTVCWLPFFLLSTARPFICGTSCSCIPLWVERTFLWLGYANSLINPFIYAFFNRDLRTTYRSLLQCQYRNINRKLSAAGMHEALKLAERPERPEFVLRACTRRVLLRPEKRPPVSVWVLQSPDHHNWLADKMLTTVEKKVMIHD
Method: Radioligand binding assays were performed using the Cloned Human Serotonin Receptor, Subtype 7 (h5HT7), expressed in CHO cells, coated on Flashplate (Basic FlashPlate Cat.: SMP200) from PerkinElmer (Cat.: 6120512). The protocol assay was essentially the recommended protocol in the Technical Data Sheet by PerkinEmer Life and Analytical Sciences. The Mass membrane protein/well was typically 12 μg and the Receptor/well was about 9-10 fmoles. The Flashplate were let equilibrate at room temperature for one hour before the addition of the components of the assay mixture. The binding buffer was: 50 mM Tris-HCl, pH 7.4, containing 10 mM MgCl2, 0.5 mM EDTA and 0.5% BSA. The radioligand was [^125I]LSD at a final concentration of 0.82 nM. Nonspecific binding was determined with 50 μM of Clozapine. The assay volume was 25 μl. TopSeal-A were applied onto Flashplate microplates and they were incubated at room temperature for 240 minutes in darkness. The radioactivity were quantified by liquid scintillation spectrophotometry (Wallac 1450 Microbeta Trilux) with a count delay of 4 minutes prior to counting and a counting time of 30 seconds per well. Competition binding data were analyzed by using the LIGAND program (Munson and Rodbard, LIGAND: A versatile, computerized approach for characterization of ligand-binding systems. Anal. Biochem. 107: 220-239, 1980) and assays were performed in triplicate determinations for each point.
With `Cc1nn(C)c(C)c1-c1cccc2c1CC[C@H](N(C)C(C)C)C2` [Example AB, (2S)-Isopropyl-methyl-[5-(1,3,5-trimethyl-1H-pyrazol-4-yl)-1,2,3,4-tetrahydro-naphthalen-2-yl]-amine] the Ki was 644 ± 63.5 nM. `CCN(CC)C1CCc2c(cccc2-c2c(C)nn(C)c2C)C1` (centres unmarked) [Example S, Diethyl-[5-(1,3,5-trimethyl-1H-pyrazol-4-yl)-1,2,3,4-tetrahydro-naphthalen-2-yl]-amine] showed a Ki of 130 nM. Work on `Cc1nn(C)c(C)c1-c1cccc2c1CC[C@@H](N(C)C)C2` [Example J, (2R)-Dimethyl-[5-(1,3,5-trimethyl-1H-pyrazol-4-yl)-1,2,3,4-tetrahydro-naphthalen-2-yl]-amine dihydrochloride] yielded an IC50 of 178 nM. Compound `COc1ccccc1-c1cccc2c1CCC(N(C)C)C2` (centres unmarked) [AF, [5-(2-Methoxy-phenyl)-1,2,3,4-tetrahydro-naphthalen-2-yl]-dimethyl-amine] has a Ki of 25.8 ± 4.6 nM. In the case of `Cc1nn(C)c(C)c1-c1cccc2c1CCC(N1CCCC1)C2` (centres unmarked) [O, 1,3,5-Trimethyl-4-(6-pyrrolidin-1-yl-5,6,7,8-tetrahydro-naphthalen-1-yl)-1H-pyrazole], the Ki is reported as 96.3 ± 2 nM. Compound `Cc1n[nH]c(C)c1-c1cccc2c1CC[C@H](N(C)C)C2` [Example L, (2S)-[5-(3,5-Dimethyl-1H-pyrazol-4-yl)-1,2,3,4-tetrahydro-naphthalen-2-yl]-dimethyl-amine dihydrochloride] has an IC50 of 18.4 ± 2.5 nM. `CCCN(C)C1CCc2c(cccc2-c2c(C)nn(C)c2C)C1` (centres unmarked) [R, Methyl-propyl-[5-(1,3,5-trimethyl-1H-pyrazol-4-yl)-1,2,3,4-tetrahydro-naphthalen-2-yl]-amine] gave a Ki of 9.1 ± 1.5 nM. For `COc1cccc(Cl)c1-c1cccc2c1CCC(N(C)C)C2` (centres unmarked) [AH, [5-(2-Chloro-6-methoxy-phenyl)-1,2,3,4-tetrahydro-naphthalen-2-yl]-dimethyl-amine], the Ki was 11.6 ± 3 nM. `CCCN(C(C)C)[C@H]1CCc2c(cccc2-c2c(C)nn(C)c2C)C1` [AC, (2S)-Isopropyl-propyl-[5-(1,3,5-trimethyl-1H-pyrazol-4-yl)-1,2,3,4-tetrahydro-naphthalen-2-yl]-amine] gave a Ki of 227 ± 11.3 nM. In the case of `COc1ncccc1-c1cccc2c1CCC(N(C)C)C2` (centres unmarked) [AI, [5-(2-Methoxy-pyridin-3-yl)-1,2,3,4-tetrahydro-naphthalen-2-yl]-dimethyl-amine], the Ki is reported as 61.6 ± 5.8 nM. `CCN(C)C1CCc2c(cccc2-c2c(C)nn(C)c2C)C1` (centres unmarked) [T, Ethyl-methyl-[5-(1,3,5-trimethyl-1H-pyrazol-4-yl)-1,2,3,4-tetrahydro-naphthalen-2-yl]-amine] was tested, and the Ki was 10.3 ± 0.4 nM.
